# From paper PMC5654082 (Malaria Journal, 2017)
# Counter-ions that a name gives are not always drawn. Like-named read-outs stand apart in the source and are kept apart here. Marks after values point to notes of the source that are not given here.
# B1: human OCT1 (Homo sapiens) (protein)
# chain: MPTVDDILEQVGESGWFQKQAFLILCLLSAAFAPICVGIVFLGFTPDHHCQSPGVAELSQRCGWSPAEELNYTVPGLGPAGEAFLGQCRRYEVDWNQSALSCVDPLASLATNRSHLPLGPCQDGWVYDTPGSSIVTEFNLVCADSWKLDLFQSCLNAGFLFGSLGVGYFADRFGRKLCLLGTVLVNAVSGVLMAFSPNYMSMLLFRLLQGLVSKGNWMAGYTLITEFVGSGSRRTVAIMYQMAFTVGLVALTGLAYALPHWRWLQLAVSLPTFLFLLYYWCVPESPRWLLSQKRNTEAIKIMDHIAQKNGKLPPADLKMLSLEEDVTEKLSPSFADLFRTPRLRKRTFILMYLWFTDSVLYQGLILHMGATSGNLYLDFLYSALVEIPGAFIALITIDRVGRIYPMAMSNLLAGAACLVMIFISPDLHWLNIIIMCVGRMGITIAIQMICLVNAELYPTFVRNLGVMVCSSLCDIGGIITPFIVFRLREVWQALPLILFAVLGLLAAGVTLLLPETKGVALPETMKDAENLGRKAKPKENTIYLKVQTSEPSGT
# notes: host or cells: HEK293, baculovirus transduction (CMV promoter), transient
# What was measured:
# [1] = molecular target: T1, human OCT1 (Homo sapiens, UniProt O15245); assay: Inhibition of OCT1-mediated ASP uptake in transduced HEK293 cells; format: cell-based; conditions: 50 µM anti-malarial, 10 µM ASP, 10 min, 37 °C; relative to solvent control fixed at 100%
# T1 construct: host or cells: HEK293, baculovirus transduction (CMV promoter), transient
# T1 sequence (O15245 1-554): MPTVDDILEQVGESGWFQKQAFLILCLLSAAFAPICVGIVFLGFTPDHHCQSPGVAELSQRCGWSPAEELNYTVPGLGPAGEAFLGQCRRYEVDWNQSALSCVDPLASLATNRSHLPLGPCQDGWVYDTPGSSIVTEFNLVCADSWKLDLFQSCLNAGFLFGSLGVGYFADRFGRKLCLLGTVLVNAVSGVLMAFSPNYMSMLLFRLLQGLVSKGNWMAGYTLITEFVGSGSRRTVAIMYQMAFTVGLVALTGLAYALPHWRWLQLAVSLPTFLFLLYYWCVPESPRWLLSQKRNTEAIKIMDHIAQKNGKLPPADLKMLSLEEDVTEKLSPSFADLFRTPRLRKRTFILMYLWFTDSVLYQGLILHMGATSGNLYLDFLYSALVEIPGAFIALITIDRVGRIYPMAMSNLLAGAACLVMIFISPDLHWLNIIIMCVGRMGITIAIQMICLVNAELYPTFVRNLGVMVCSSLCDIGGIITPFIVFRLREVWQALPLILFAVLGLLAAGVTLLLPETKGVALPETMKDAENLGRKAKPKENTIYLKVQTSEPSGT
# Procedure: (§1) HEK293 cells were modified to transiently express (a combination of) human OCT1, OCT2, MATE1, MATE2-K, or eYFP. Briefly, cDNA of the respective genes was cloned downstream of a CMV promoter into a baculovirus, of which passage three was used to transduce HEK293 cells. These cells were seeded in poly-D-lysine coated 24- or 96-wells plates and grown in a 37 °C incubator at 5% CO2. Growth was initiated at ~ 25% confluency using 375 or 125 μL cell and complete medium (DMEM + GlutaMAX™-I supplemented with 10% fetal bovine serum) suspension per well, respectively. After 24 h, cells were transduced with 30 µL virus (10 µL virus + 20 µL complete medium in case of 96-wells plates) or 2 × 15 µL virus for cells that required simultaneous expression of two transporters. Finally, 195 µL sodium butyrate (45 µL for 96-wells plates) was added to a final concentration of 2 mM to enhance protein expression.
# AMO (10 mM), ASP (1 mM), CQ (10 mM), PQ (10 mM) and PG (10 mM) were dissolved in MilliQ water. ART (10 mM), ATO (10 mM), DHA (10 mM), LUM (10 mM), MQ (10 mM), NMQ (20 mM), PYR (10 mM), QN (10 mM) were dissolved in DMSO. All compound stocks were stored at − 20 °C. Inhibition of OCT1- or OCT2-mediated ASP uptake by anti-malarials was performed in poly-D-lysine coated 96-wells plates 2 or 3 days following HEK293 cell transduction. In short, cells were washed with 125 µL 37 °C HBSS containing 10 mM HEPES, pH 7.4. Then, a 50 µL mixture of ASP (10 µM) and anti-malarial compound (25, 50 or 100 µM) in HBSS buffer (pH 7.4) was added to each well and incubated for 10 min at 37 °C. ASP transport was stopped by washing with 125 µL ice-cold HBSS-HEPES buffer supplemented with 0.5% BSA. Following a second wash with 125 µL ice-cold HBSS-HEPES buffer, cells were lysed with 125 µL 1 M NaOH and ASP was excited at a wavelength of 485 nm and fluorescence was detected at an emission wavelength of 535 nm using the Victor X3 multimode plate reader.
# (§2) For each compound, a range of seven concentrations was used to determine the concentration at which ASP uptake was inhibited half maximally (IC50). At least three independent experiments (4 for QN) were performed for each drug in triplicate as described above. Inhibition curves were plotted by nonlinear regression analyses of the data using GraphPad Prism version 5.03. […] To generate the final dose–response inhibition curve per anti-malarial, percentage of uptake was averaged for each drug concentration per experiment and the resulting mean ± SEM corresponding to three or four independent experiments were plotted.
# [2] = molecular target: T2, human OCT2 (Homo sapiens, UniProt O15244); assay: Inhibition of OCT2-mediated ASP uptake in transduced HEK293 cells; format: cell-based
# T2 construct: host or cells: HEK293, baculovirus transduction (CMV promoter), transient
# T2 sequence (O15244 1-555): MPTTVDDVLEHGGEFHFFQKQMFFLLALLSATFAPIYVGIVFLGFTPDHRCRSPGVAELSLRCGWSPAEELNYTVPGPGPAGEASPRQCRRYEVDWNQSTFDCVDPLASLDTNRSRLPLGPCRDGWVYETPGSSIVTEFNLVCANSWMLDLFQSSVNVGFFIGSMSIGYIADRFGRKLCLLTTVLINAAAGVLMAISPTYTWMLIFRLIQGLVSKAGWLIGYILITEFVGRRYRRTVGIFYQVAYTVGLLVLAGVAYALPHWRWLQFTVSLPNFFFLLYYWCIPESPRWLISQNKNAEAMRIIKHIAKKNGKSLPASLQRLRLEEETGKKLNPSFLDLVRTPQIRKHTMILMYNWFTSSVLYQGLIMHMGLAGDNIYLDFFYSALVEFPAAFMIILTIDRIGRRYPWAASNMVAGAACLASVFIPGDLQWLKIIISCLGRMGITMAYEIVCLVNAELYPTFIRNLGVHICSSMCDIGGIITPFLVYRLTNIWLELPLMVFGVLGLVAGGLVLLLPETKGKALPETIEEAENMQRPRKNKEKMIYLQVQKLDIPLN
# Procedure: as §1, with “Growth was initiated at ~ 25% confluency using 375 or 125 μL cell and complete medium (DMEM + GlutaMAX™-I supplemented with 10% fetal bovine serum) suspension per well, respectively.” left out
# AMO (10 mM), ASP (1 mM), CQ (10 mM), PQ (10 mM) and PG (10 mM) were dissolved in MilliQ water. ART (10 mM), ATO (10 mM), DHA (10 mM), LUM (10 mM), MQ (10 mM), NMQ (20 mM), PYR (10 mM), QN (10 mM) were dissolved in DMSO. All compound stocks were stored at − 20 °C. Inhibition of OCT1- or OCT2-mediated ASP uptake by anti-malarials was performed in poly-D-lysine coated 96-wells plates 2 or 3 days following HEK293 cell transduction. In short, cells were washed with 125 µL 37 °C HBSS containing 10 mM HEPES, pH 7.4. […] ASP transport was stopped by washing with 125 µL ice-cold HBSS-HEPES buffer supplemented with 0.5% BSA.
# as §2, with “above.” for “above. Inhibition curves were plotted by nonlinear regression analyses of the data using GraphPad Prism version 5.03.”
# [3] = molecular target: T1, human OCT1; assay: OCT1-mediated cellular import in transduced HEK293 cells (LC-MS/MS); format: cell-based; conditions: 10 µM, 15 min, 37 °C
# Procedure: as §1
# HEK293 cells were seeded in 24-wells poly-D-lysine coated plates and transduced the subsequent day with OCT1 or OCT2 as described above. Three days following transduction, OCT1- or OCT2-mediated uptake of ten anti-malarials (AMO, ART, ATO, CQ, DHA, LUM, MQ, PQ, PG, and QN) was performed. NMQ served as a positive substrate for both OCT1 and OCT2 import. In short, cells were washed with 400 µL 37 °C HBSS-HEPES buffer followed by adding 150 µL HBSS buffer with 10 µM anti-malarial or NMQ to each well. After incubation for 15 min at 37 °C, import was stopped by washing with 400 µL ice-cold HBSS-HEPES buffer supplemented with 0.5% BSA. Following a second wash with 400 µL ice-cold HBSS-HEPES buffer, cells were lysed with 200 µL 50% (v/v) MeOH and 0.1% (v/v) formic acid (HCOOH) in water and samples were sent for quantification by mass spectrometry analysis (see “LC–MS/MS quantification of anti-malarials” section). […]
# (§3) The affinity (KM) and maximum transport rate (Vmax) for OCT1 and OCT2 of PG were determined by analysing concentration-dependent uptake data from three independent experiments.
# (§4) Import and export of PG and cycloguanil (CG) was assessed by single and double transduced HEK293 cells. […] Following the same procedure as for the cellular import assay described above, the import of 100 µM PG and CG was measured after 5 min incubation and data was plotted as mean pmol/mg/min ± SEM. […] Significant reduction in uptake (i.e. export by MATEs) was determined using ln transformation and a one-way repeated measures ANOVA with Dunnet’s post test.
# Anti-malarial concentration in the cell lysates was quantified using an LC–MS/MS system consisting of a UPLC, a binary solvent manager, a vacuum degasser and an autosampler, coupled to a Xevo TQ-S micro triple quadrupole mass spectrometer. […]
# [4] = molecular target: T2, human OCT2; assay: OCT2-mediated cellular import in transduced HEK293 cells (LC-MS/MS); format: cell-based; conditions: 10 µM, 15 min, 37 °C
# Procedure: as §1
# HEK293 cells were seeded in 24-wells poly-D-lysine coated plates and transduced the subsequent day with OCT1 or OCT2 as described above. Three days following transduction, OCT1- or OCT2-mediated uptake of ten anti-malarials (AMO, ART, ATO, CQ, DHA, LUM, MQ, PQ, PG, and QN) was performed. […] Following a second wash with 400 µL ice-cold HBSS-HEPES buffer, cells were lysed with 200 µL 50% (v/v) MeOH and 0.1% (v/v) formic acid (HCOOH) in water and samples were sent for quantification by mass spectrometry analysis (see “LC–MS/MS quantification of anti-malarials” section). […]
# as §3
# as §4, with “test. […]” for “test.”
# [5] = Maximum plasma concentration from in vivo pharmacokinetic studies after therapeutic dosing; conditions: human, the literature Cmax (ng/mL) of Table 2 expressed in µM
# Description: As Cmax the (geometric) mean or median maximum plasma concentrations obtained from previous in vivo pharmacokinetic studies after therapeutic dosing was used.
# [6] = Ugandan children aged 5–13 years with uncomplicated malaria; (geometric) mean or median; cited from earlier work
# [7] = cited from earlier work
# [8] = substrate: [H]/N=C(\N/C(=N/[H])Nc1ccc(Cl)cc1)NC(C)C; assay: OCT1-mediated cellular import in transduced HEK293 cells (LC-MS/MS); format: cell-based, human; conditions: other: 1 min incubation, 37 °C, 2.0–16 µM, pH 7.4
# Procedure: HEK293 cells were modified to transiently express (a combination of) human OCT1, OCT2, MATE1, MATE2-K, or eYFP. Briefly, cDNA of the respective genes was cloned downstream of a CMV promoter into a baculovirus, of which passage three was used to transduce HEK293 cells. These cells were seeded in poly-D-lysine coated 24- or 96-wells plates and grown in a 37 °C incubator at 5% CO2. Growth was initiated at ~ 25% confluency using 375 or 125 μL cell and complete medium (DMEM + GlutaMAX™-I supplemented with 10% fetal bovine serum) suspension per well, respectively. […]
# HEK293 cells were seeded in 24-wells poly-D-lysine coated plates and transduced the subsequent day with OCT1 or OCT2 as described above. […] Following a second wash with 400 µL ice-cold HBSS-HEPES buffer, cells were lysed with 200 µL 50% (v/v) MeOH and 0.1% (v/v) formic acid (HCOOH) in water and samples were sent for quantification by mass spectrometry analysis (see “LC–MS/MS quantification of anti-malarials” section). […]
# as §3
# Import and export of PG and cycloguanil (CG) was assessed by single and double transduced HEK293 cells. […]
# [9] = 50 µM anti-malarial, 10 µM ASP, 10 min, 37 °C, relative to solvent control fixed at 100%
molecule,measurement,setting,value
"OC(c1cc(C(F)(F)F)nc2c(C(F)(F)F)cccc12)C1CCCCN1 (centres unmarked) [Mefloquine, mefloquine hydrochloride]",Relative ASP uptake (OCT1-mediated),[1],150 ± 21%
"CCN(CC)CCCC(C)Nc1ccnc2cc(Cl)ccc12 (centres unmarked) [Chloroquine, chloroquine diphosphate]",Relative ASP uptake (OCT2-mediated),[2],48 ± 11%
"C[C@@H]1CC[C@H]2[C@@H](C)C(=O)O[C@@H]3O[C@@]4(C)CC[C@@H]1[C@]32OO4 [Artemisinin, artemisinin]",Relative ASP uptake (OCT2-mediated),[2]; [9],61 ± 13%
"COc1cc(NC(C)CCCN)c2ncccc2c1 (centres unmarked) [Primaquine, primaquine diphosphate]",Relative ASP uptake (OCT2-mediated),[2]; [9],60 ± 7%
same,Relative ASP uptake (OCT1-mediated),[1],59 ± 3%
"C=C[C@H]1C[N+]2(C)CC[C@H]1C[C@@H]2[C@@H](O)c1ccnc2ccc(OC)cc12 [NMQ, N-methyl-quinidine]","Uptake by OCT1, percentage of mock-transduced control",[3],taken up
same,"Uptake by OCT2, percentage of mock-transduced control",[4],taken up
"CCN(CC)Cc1cc(Nc2ccnc3cc(Cl)ccc23)ccc1O [Amodiaquine, amodiaquine dihydrochloride dehydrate]",IC50,"[2]; 10 µM ASP, 10 min, 37 °C, seven concentrations",11 µM
same,Relative ASP uptake (OCT2-mediated),[2]; [9],12.1 ± 0.6%
same,Cmax,[5],0.015 µM
same,Cmax,[6],5.2^c [45] ng/mL
same,Unbound fraction,[7],0.1 [46]
same,Relative ASP uptake (OCT1-mediated),[1],67 ± 4%
B1,Km,[8],8.1 µM
